# Experiments:
# Assay type in all cases: cell-based
# [1] = biological target: T1, Ba/F3 cells with EGFR exon 20 ASV Ins V769_D770 (Homo sapiens, UniProt P00533, INS769ASV); assay: EGFR activity: Ba/F3 cell viability (CellTiter-Glo, 72 h), EGFR exon 20 ASV insertion; settings: EGFR exon 20 ASV Ins V769_D770, cell viability, read-out: BaF3 ASV IC50
# T1 construct: expressed in transfected cells; host or cells: Ba/F3 (murine pro-B cells), retroviral transduction, puromycin selection, IL3-independent pool
# [2] = biological target: T2, pEGFR in Ba/F3 cells expressing EGFR exon 20 ASV Ins V769_D770 (Homo sapiens, UniProt P00533, INS769ASV); assay: Inhibitor activity on EGFR phosphorylation (pEGFR AlphaLISA, 2 h), Ba/F3 EGFR exon 20 ASV insertion; settings: Ba/F3 EGFR exon 20 ASV Ins V769_D770
# T2 construct: expressed in transfected cells; host or cells: Ba/F3 (murine pro-B cells), retroviral transduction, puromycin selection, IL3-independent pool
# [3] = biological target: T3, Ba/F3 cells with EGFR exon 20 NPG Ins D770_N771 (Homo sapiens, UniProt P00533, INS770NPG); assay: EGFR activity: Ba/F3 cell viability (CellTiter-Glo, 72 h), EGFR exon 20 NPG insertion; settings: EGFR exon 20 NPG Ins D770_N771, cell viability, read-out: BaF3 NPG IC50
# T3 construct: expressed in transfected cells; host or cells: Ba/F3 (murine pro-B cells), retroviral transduction, puromycin selection, IL3-independent pool
# Ba/F3 cells with EGFR WT = biological target: T4, Ba/F3 cells with EGFR WT (Homo sapiens, UniProt P00533); assay: EGFR activity: Ba/F3 cell viability (CellTiter-Glo, 72 h), EGFR WT; settings: read-out: BaF3 WT IC50
# T4 construct: expressed in transfected cells; host or cells: Ba/F3 (murine pro-B cells), retroviral transduction, puromycin selection, maintained with EGF
# [4] = biological target: T5, pEGFR in Ba/F3 cells expressing EGFR exon 20 NPG Ins D770_N771 (Homo sapiens, UniProt P00533, INS770NPG); assay: Inhibitor activity on EGFR phosphorylation (pEGFR AlphaLISA, 2 h), Ba/F3 EGFR exon 20 NPG insertion; settings: Ba/F3 EGFR exon 20 NPG Ins D770_N771
# T5 construct: expressed in transfected cells; host or cells: Ba/F3 (murine pro-B cells), retroviral transduction, puromycin selection, IL3-independent pool
# pEGFR in CUTO14 cells = biological target: T6, pEGFR in CUTO14 cells (Homo sapiens, UniProt P00533, DUP767-769); assay: Inhibitor activity on EGFR phosphorylation (pEGFR AlphaLISA, 2 h), CUTO14 cells
# T6 construct: endogenous in cells; host or cells: CUTO14 cells
# Procedure: CUTO14 cells were obtained from Dr. Robert C. Doebele at the University of Colorado.
# Shake 350 rpm for 1 hr in the dark • 3.4 Prepare donor mix under low light conditions prior to use. Dispense 5 μL of donor mix to all the wells. Mix well on the shaker, seal and wrap in aluminum foil and incubate 1.5 hrs at room temperature in the dark • 3.5 Transfer 18.5 μL mixture to OptiPlate 384, and read using an Envision.
# T5 sequence (P00533 with tags, fused parts or gaps INS770NPG): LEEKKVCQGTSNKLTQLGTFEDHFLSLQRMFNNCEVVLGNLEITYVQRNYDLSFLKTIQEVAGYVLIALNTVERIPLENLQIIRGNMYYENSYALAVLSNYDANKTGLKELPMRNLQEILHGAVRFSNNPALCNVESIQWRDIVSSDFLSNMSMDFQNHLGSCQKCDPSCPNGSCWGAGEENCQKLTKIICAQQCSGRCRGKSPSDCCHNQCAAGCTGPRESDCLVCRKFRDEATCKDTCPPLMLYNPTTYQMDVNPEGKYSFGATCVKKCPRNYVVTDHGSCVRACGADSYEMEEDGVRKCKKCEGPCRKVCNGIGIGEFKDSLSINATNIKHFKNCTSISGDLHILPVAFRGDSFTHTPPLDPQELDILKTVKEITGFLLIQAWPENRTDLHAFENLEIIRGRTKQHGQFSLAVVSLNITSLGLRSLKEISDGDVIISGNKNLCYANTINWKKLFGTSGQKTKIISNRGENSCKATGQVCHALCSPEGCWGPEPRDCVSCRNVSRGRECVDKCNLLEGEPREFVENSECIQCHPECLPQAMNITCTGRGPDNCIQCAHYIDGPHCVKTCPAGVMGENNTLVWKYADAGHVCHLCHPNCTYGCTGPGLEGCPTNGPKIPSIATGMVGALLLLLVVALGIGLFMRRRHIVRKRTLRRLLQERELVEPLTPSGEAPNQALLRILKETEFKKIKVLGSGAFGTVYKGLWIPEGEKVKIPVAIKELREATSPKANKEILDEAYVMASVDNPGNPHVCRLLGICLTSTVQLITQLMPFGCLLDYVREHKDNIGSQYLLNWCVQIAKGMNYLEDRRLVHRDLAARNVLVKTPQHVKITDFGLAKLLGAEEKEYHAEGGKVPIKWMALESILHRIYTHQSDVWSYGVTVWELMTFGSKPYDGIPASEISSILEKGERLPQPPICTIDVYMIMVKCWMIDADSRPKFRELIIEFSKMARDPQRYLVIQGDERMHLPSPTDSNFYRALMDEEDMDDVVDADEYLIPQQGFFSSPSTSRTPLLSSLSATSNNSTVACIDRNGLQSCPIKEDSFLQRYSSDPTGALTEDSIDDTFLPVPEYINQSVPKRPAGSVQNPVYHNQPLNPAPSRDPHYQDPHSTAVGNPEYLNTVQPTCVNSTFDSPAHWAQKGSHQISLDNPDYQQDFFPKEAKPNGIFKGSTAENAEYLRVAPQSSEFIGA
# T3 sequence (P00533 with tags, fused parts or gaps INS770NPG): as above
# T6 sequence (P00533 with tags, fused parts or gaps DUP767-769): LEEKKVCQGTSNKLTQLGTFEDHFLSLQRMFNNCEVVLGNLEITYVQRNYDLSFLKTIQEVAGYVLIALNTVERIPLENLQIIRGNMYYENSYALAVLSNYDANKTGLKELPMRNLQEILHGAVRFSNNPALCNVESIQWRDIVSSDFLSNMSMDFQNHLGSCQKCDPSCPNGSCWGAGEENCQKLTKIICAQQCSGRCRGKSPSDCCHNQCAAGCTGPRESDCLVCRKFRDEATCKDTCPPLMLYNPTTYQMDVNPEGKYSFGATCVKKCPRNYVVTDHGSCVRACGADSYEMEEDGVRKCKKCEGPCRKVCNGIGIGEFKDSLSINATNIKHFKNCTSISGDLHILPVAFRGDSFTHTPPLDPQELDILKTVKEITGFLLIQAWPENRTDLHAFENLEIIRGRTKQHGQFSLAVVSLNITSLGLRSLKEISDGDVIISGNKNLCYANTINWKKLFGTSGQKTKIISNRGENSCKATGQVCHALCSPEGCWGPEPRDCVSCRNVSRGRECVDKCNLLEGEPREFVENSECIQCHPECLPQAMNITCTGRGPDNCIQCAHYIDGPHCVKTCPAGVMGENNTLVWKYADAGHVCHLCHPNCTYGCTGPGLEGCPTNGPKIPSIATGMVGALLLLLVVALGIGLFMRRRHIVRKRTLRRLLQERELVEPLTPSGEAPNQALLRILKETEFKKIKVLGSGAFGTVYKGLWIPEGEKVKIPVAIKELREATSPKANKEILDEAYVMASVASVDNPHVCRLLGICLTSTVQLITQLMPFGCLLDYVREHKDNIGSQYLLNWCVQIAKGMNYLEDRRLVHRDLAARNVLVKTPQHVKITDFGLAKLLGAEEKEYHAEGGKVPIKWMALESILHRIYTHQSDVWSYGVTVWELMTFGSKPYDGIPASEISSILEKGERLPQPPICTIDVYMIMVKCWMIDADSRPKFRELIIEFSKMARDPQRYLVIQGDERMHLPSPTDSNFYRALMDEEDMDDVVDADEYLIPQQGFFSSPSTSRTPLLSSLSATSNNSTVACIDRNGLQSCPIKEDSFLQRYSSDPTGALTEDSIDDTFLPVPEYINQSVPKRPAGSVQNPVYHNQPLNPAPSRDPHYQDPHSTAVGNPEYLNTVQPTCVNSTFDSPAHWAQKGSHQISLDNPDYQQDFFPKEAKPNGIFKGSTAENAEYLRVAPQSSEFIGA
# T1 sequence (P00533 with tags, fused parts or gaps INS769ASV): as the sequence (P00533 with tags, fused parts or gaps DUP767-769) above
SMILES,IC50 [2] [µM],IC50 [4] [µM],IC50 (pEGFR in CUTO14 cells) [µM],IC50 [1] [µM],IC50 [3] [µM],IC50 (Ba/F3 cells with EGFR WT) [µM]
"COc1c(F)cccc1Nc1c(-c2ccncc2OCc2csc3nccn23)[nH]c2c1C(=O)NCC2 [Compound 130, 3-[(3-fluoro-2-methoxyphenyl)amino]-2-(3-[imidazo[2,1-b][1,3]thiazol-3-ylmethoxy]pyridin-4-yl)-1H,5H,6H,7H-pyrrolo[3,2-c]pyridin-4-one]",> 1,–,–,> 1,> 1,> 1
"COc1c(F)cccc1Nc1c(-c2ccncc2OCc2cnc3n2CCC3)[nH]c2c1C(=O)NCC2 [Compound 150, 2-(3-((6,7-dihydro-5H-pyrrolo[1,2-a]imidazol-3-yl)methoxy)pyridin-4-yl)-3-((3-fluoro-2-methoxyphenyl)amino)-1,5,6,7-tetrahydro-4H-pyrrolo[3,2-c]pyridin-4-one]",< 0.1,–,–,0.1 to 1,> 1,> 1
"CCC(=O)N1CCC[C@@H]1COc1cnccc1-c1[nH]c2c(c1Nc1cccc(Cl)c1OC)C(=O)NCC2 [Compound 470, 3-[(3-chloro-2-methoxyphenyl)amino]-2-(3-[[(2R)-1-propanoylpyrrolidin-2-yl]methoxy]pyridin-4-yl)-1H,5H,6H,7H-pyrrolo[3,2-c]pyridin-4-one]",–,0.1 to 1,–,> 1,> 1,> 1
"COc1c(F)cccc1Nc1c(-c2ccncc2OCc2ncco2)[nH]c2c1C(=O)NCC2 [Compound 474, 3-[(3-fluoro-2-methoxyphenyl)amino]-2-[3-(1,3-oxazol-2-ylmethoxy)pyridin-4-yl]-1H,5H,6H,7H-pyrrolo[3,2-c]pyridin-4-one]",< 0.1,–,–,0.1 to 1,> 1,0.1 to 1
"COc1c(F)cccc1Nc1c(-c2ccncc2OCc2cn3ccccc3n2)[nH]c2c1C(=O)NCC2 [Compound 481, 3-[(3-fluoro-2-methoxyphenyl)amino]-2-(3-[imidazo[1,2-a]pyridin-2-ylmethoxy]pyridin-4-yl)-1H,5H,6H,7H-pyrrolo[3,2-c]pyridin-4-one]",< 0.1,–,–,< 0.1,> 1,0.1 to 1
"C=CC(=O)N1CCC[C@]1(C)C#Cc1cnccc1-c1[nH]c2c(c1Nc1cccc(F)c1OC)C(=O)NCC2 [compound 245, 3-[(3-fluoro-2-methoxyphenyl)amino]-2-(3-{2-[(2R)-2-methyl-1-(prop-2-enoyl)pyrrolidin-2-yl]ethynyl}pyridin-4-yl)-1H,5H,6H,7H-pyrrolo[3,2-c]pyridin-4-one]",–,< 0.1,< 0.1,–,–,–
"C=CC(=O)NC(C)(C)C#Cc1cnccc1-c1[nH]c2c(c1Nc1cccc(F)c1OC)C(=O)NCC2 [compound 258, N-[4-(4-{3-[(3-fluoro-2-methoxyphenyl)amino]-4-oxo-1H,5H,6H,7H-pyrrolo[3,2-c]pyridin-2-yl}pyridin-3-yl)-2-methylbut-3-yn-2-yl]prop-2-enamide]",–,< 0.1,< 0.1,–,–,–
COc1c(Cl)cccc1Nc1c(-c2ccncc2C#CC2CC2)[nH]c2c1C(=O)NCC2 [compound 488],< 0.1,–,–,< 0.1,< 0.1,0.1 to 1
COc1c(Cl)cccc1Nc1c(-c2ccncc2C#CC2(C)COC2)[nH]c2c1C(=O)NCC2 [compound 490],< 0.1,–,–,0.1 to 1,–,> 1
"C=CC(=O)NC(C)(C)C#Cc1cnccc1-c1[nH]c2c(c1Nc1cccc(Cl)c1OC)C(=O)NCC2 [compound 492, N-[4-(4-{3-[(3-chloro-2-methoxyphenyl)amino]-4-oxo-1H,5H,6H,7H-pyrrolo[3,2-c]pyridin-2-yl}pyridin-3-yl)-2-methylbut-3-yn-2-yl]prop-2-enamide]",–,< 0.1,< 0.1,–,–,–
COc1c(Cl)cccc1Nc1c(-c2ccncc2C#C[C@@H]2CN(C)CCO2)[nH]c2c1C(=O)NCC2 [compound 496],–,< 0.1,–,< 0.1,< 0.1,> 1

# The next lines start with results.
IC50 [2] [µM],IC50 [4] [µM],IC50 (pEGFR in CUTO14 cells) [µM],SMILES,IC50 [1] [µM],IC50 [3] [µM],IC50 (Ba/F3 cells with EGFR WT) [µM]
0.1 to 1,< 0.1,–,"COc1c(F)cccc1Nc1c(-c2ccncc2OCC2CCn3ccnc32)[nH]c2c1C(=O)NCC2 (stereo not shown) [Compound 124, 3-[(3-fluoro-2-methoxyphenyl)amino]-2-(3-[5H,6H,7H-pyrrolo[1,2-a]imidazol-7-ylmethoxy]pyridin-4-yl)-1H,5H,6H,7H-pyrrolo[3,2-c]pyridin-4-one]",0.1 to 1,> 1,> 1
–,< 0.1,–,"C=CC(=O)N1CCCC[C@@H]1COc1cnccc1-c1[nH]c2c(c1Nc1cccc(F)c1C)C(=O)NCC2 [Compound 468, 3-[(3-fluoro-2-methylphenyl)amino]-2-(3-[[(2R)-1-(prop-2-enoyl)piperidin-2-yl]methoxy]pyridin-4-yl)-1H,5H,6H,7H-pyrrolo[3,2-c]pyridin-4-one]",0.1 to 1,0.1 to 1,0.1 to 1
–,< 0.1,–,"COc1c(F)cccc1Nc1c(-c2ccncc2OCc2ccccn2)[nH]c2c1C(=O)NCC2 [Compound 472, 3-[(3-fluoro-2-methoxyphenyl)amino]-2-[3-(pyridin-2-ylmethoxy)pyridin-4-yl]-1H,5H,6H,7H-pyrrolo[3,2-c]pyridin-4-one]",< 0.1,< 0.1,< 0.1
< 0.1,< 0.1,–,"COc1c(F)cccc1Nc1c(-c2ccncc2OCc2cccn3ccnc23)[nH]c2c1C(=O)NCC2 [Compound 475, 3-[(3-fluoro-2-methoxyphenyl)amino]-2-(3-[imidazo[1,2-a]pyridin-8-ylmethoxy]pyridin-4-yl)-1H,5H,6H,7H-pyrrolo[3,2-c]pyridin-4-one]",0.1 to 1,0.1 to 1,0.1 to 1
–,< 0.1,–,"COc1cccnc1COc1cnccc1-c1[nH]c2c(c1Nc1cccc(F)c1OC)C(=O)NCC2 [Compound 476, 3-[(3-fluoro-2-methoxyphenyl)amino]-2-[3-[(3-methoxypyridin-2-yl)methoxy]pyridin-4-yl]-1H,5H,6H,7H-pyrrolo[3,2-c]pyridin-4-one]",< 0.1,< 0.1,0.1 to 1
< 0.1,< 0.1,–,"COc1c(F)cccc1Nc1c(-c2ccncc2OCc2ncc(C)cn2)[nH]c2c1C(=O)NCC2 [Compound 477, 3-[(3-fluoro-2-methoxyphenyl)amino]-2-[3-[(5-methylpyrimidin-2-yl)methoxy]pyridin-4-yl]-1H,5H,6H,7H-pyrrolo[3,2-c]pyridin-4-one]",–,< 0.1,< 0.1
< 0.1,< 0.1,–,"COc1c(F)cccc1Nc1c(-c2ccncc2OCc2ccncn2)[nH]c2c1C(=O)NCC2 [Compound 478, 3-[(3-fluoro-2-methoxyphenyl)amino]-2-[3-(pyrimidin-4-ylmethoxy)pyridin-4-yl]-1H,5H,6H,7H-pyrrolo[3,2-c]pyridin-4-one]",< 0.1,< 0.1,0.1 to 1
0.1 to 1,< 0.1,–,"COc1c(F)cccc1Nc1c(-c2ccncc2OCc2ccnn2C)[nH]c2c1C(=O)NCC2 [Compound 480, 3-[(3-fluoro-2-methoxyphenyl)amino]-2-[3-[(2-methylpyrazol-3-yl)methoxy]pyridin-4-yl]-1H,5H,6H,7H-pyrrolo[3,2-c]pyridin-4-one]",> 1,> 1,> 1
< 0.1,< 0.1,–,"COc1c(F)cccc1Nc1c(-c2ccncc2OCCc2ccco2)[nH]c2c1C(=O)NCC2 [Compound 483, 3-[(3-fluoro-2-methoxyphenyl)amino]-2-[3-[2-(furan-2-yl)ethoxy]pyridin-4-yl]-1H,5H,6H,7H-pyrrolo[3,2-c]pyridin-4-one]",0.1 to 1,< 0.1,0.1 to 1
–,< 0.1,–,"C=CC(=O)N1CCC[C@H]1COc1cnccc1-c1[nH]c2c(c1Nc1cccc(F)c1CC)C(=O)NCC2 [compound 211, 3-[(2-ethyl-3-fluorophenyl)amino]-2-(3-{[(2S)-1-(prop-2-enoyl)pyrrolidin-2-yl]methoxy}pyridin-4-yl)-1H,5H,6H,7H-pyrrolo[3,2-c] pyridin-4-one]",< 0.1,< 0.1,< 0.1
–,< 0.1,–,"C=C(F)C(=O)N1CC[C@@H]1COc1cnccc1-c1[nH]c2c(c1Nc1cccc(Cl)c1OC)C(=O)NCC2 [compound 226, 3-[(3-chloro-2-methoxyphenyl)amino]-2-(3-{[(2R)-1-(2-fluoroprop-2-enoyl)azetidin-2-yl]methoxy}pyridin-4-yl)-1H,5H,6H,7H-pyrrolo[3,2-c]pyridin-4-one]",< 0.1,< 0.1,0.1 to 1
–,< 0.1,< 0.1,CC#CC(=O)N1CC[C@@H]1COc1cnccc1-c1[nH]c2c(c1Nc1cccc(Cl)c1OC)C(=O)NCC2 [compound 227],< 0.1,< 0.1,0.1 to 1

# — US20230364070A1, “PYRROLO[3,2-C]PYRIDIN-4-ONE DERIVATIVES USEFUL IN THE TREATMENT OF CANCER” (Scorpion Therapeutics, Inc., priority 2020, published 2023)
